Assay results: patent publication US8846685B2, “Human protein tyrosine phosphatase inhibitors and methods of use” (Aerpio Therapeutics Inc., priority 2006, dated 2014)

molecular target: T1, PTP1B (Homo sapiens, UniProt P18031); experiment: PTP1B activity (IC50); format: biochemical
T1 sequence (P18031 1-435): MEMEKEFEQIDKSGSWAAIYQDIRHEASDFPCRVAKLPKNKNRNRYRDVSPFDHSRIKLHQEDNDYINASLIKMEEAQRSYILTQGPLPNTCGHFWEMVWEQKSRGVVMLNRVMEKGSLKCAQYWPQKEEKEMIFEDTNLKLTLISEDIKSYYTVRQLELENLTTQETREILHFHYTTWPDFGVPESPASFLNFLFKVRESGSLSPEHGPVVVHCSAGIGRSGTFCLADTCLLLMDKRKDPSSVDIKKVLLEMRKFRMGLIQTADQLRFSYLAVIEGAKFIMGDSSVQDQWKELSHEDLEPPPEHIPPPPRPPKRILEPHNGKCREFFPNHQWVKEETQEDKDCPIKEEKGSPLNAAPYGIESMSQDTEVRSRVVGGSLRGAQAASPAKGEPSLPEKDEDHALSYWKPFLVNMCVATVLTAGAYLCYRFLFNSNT

`COC(=O)N[C@@H](Cc1ccccc1)C(=O)N[C@@H](Cc1ccc(NS(=O)(=O)O)cc1)c1nc(-c2ccsc2)cs1` [compound 73] and `COC(=O)N[C@@H](Cc1ccccc1)C(=O)N[C@@H](Cc1ccc(NS(=O)(=O)O)cc1)c1nc2ccccc2s1` [compound 79] are within 1.5-fold of each other in IC50: 900 nM for the first, 740 nM for the second.

`COC(=O)N[C@@H](Cc1ccccc1)C(=O)N[C@@H](Cc1ccc(NS(=O)(=O)O)cc1)c1cscn1` [compound 76] and `CCc1csc([C@H](Cc2ccc(NS(=O)(=O)O)cc2)NC(=O)[C@H](Cc2ccccc2)NC(=O)CNC(=O)OC)n1` [compound 80] are within 1.5-fold of each other in IC50: 370 nM for the first, 300 nM for the second.

Going from `COC(=O)N[C@@H](Cc1ccccc1)C(=O)N[C@@H](Cc1ccc(NS(=O)(=O)O)cc1)c1csc(-c2ccc(-c3ccccn3)s2)n1` [compound 77] to `COC(=O)N[C@@H](Cc1ccccc1)C(=O)N[C@@H](Cc1ccc(NS(=O)(=O)O)cc1)c1nc(C)c(-c2ccccc2)s1` [compound 78], the IC50 falls from 510 nM to 170 nM (3-fold). The second is the more potent here.

`CCc1cnc([C@H](Cc2ccc(NS(=O)(=O)O)cc2)NC(=O)[C@H](Cc2ccccc2)N(C)C(=O)OC)s1` [compound 81] and `CCc1nc([C@H](Cc2ccc(NS(=O)(=O)O)cc2)NC(=O)[C@H](Cc2ccccc2)N(C)C(=O)OC)cs1` [compound 82] are within 1.5-fold of each other in IC50: 640 nM for the first, 700 nM for the second.

With `COC(=O)N(C)[C@@H](Cc1ccccc1)C(=O)N[C@@H](Cc1ccc(NS(=O)(=O)O)cc1)c1csc(-c2cccs2)n1` [compound 83] the IC50 was 13200 nM.
